Assays:
Experiment in all cases: relative viability (nuclei count vs DMSO), 5 days (fraction); higher = more cells survive
Olaparib + OSI-027 = compound: O=C(c1cc(Cc2n[nH]c(=O)c3ccccc23)ccc1F)N1CCN(C(=O)C2CC2)CC1 [Olaparib] + COc1cccc2cc(-c3nc([C@H]4CC[C@H](C(=O)O)CC4)n4ncnc(N)c34)[nH]c12 [OSI-027] (partner 0.5 µM)
Procedure, shortened: (§1)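 Lung cancer cell lines were seeded in 1536-well plates and dosed by pin tool the next day, with either a single drug or a fixed anchor-drug dose combined with five library-drug doses (not always all listed) spaced in √10 steps. Five days later, one step fixed the cells and stained their nuclei (final 0.05% Triton X-100, 1% formaldehyde, 1 ug/ml Hoechst), and nuclei were counted on 4× images. Relative viability is the nuclei count in treated wells divided by the count in vehicle wells, and each value is the median of duplicate plates.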

Carfilzomib + Tozasertib = compound: CC(C)C[C@H](NC(=O)[C@H](CCc1ccccc1)NC(=O)CN1CCOCC1)C(=O)N[C@@H](Cc1ccccc1)C(=O)N[C@@H](CC(C)C)C(=O)[C@@]1(C)CO1 [Carfilzomib] + Cc1cc(Nc2cc(N3CCN(C)CC3)nc(Sc3ccc(NC(=O)C4CC4)cc3)n2)n[nH]1 [Tozasertib] (partner 0.1 µM)
Procedure, shortened: as §1

Olaparib + AZD7762 = compound: O=C(c1cc(Cc2n[nH]c(=O)c3ccccc23)ccc1F)N1CCN(C(=O)C2CC2)CC1 [Olaparib] + NC(=O)Nc1cc(-c2cccc(F)c2)sc1C(=O)N[C@H]1CCCNC1 [AZD7762] (partner 0.2 µM)
Procedure, shortened: as §1

Carfilzomib + Navitoclax = compound: CC(C)C[C@H](NC(=O)[C@H](CCc1ccccc1)NC(=O)CN1CCOCC1)C(=O)N[C@@H](Cc1ccccc1)C(=O)N[C@@H](CC(C)C)C(=O)[C@@]1(C)CO1 [Carfilzomib] + CC1(C)CCC(c2ccc(Cl)cc2)=C(CN2CCN(c3ccc(C(=O)NS(=O)(=O)c4ccc(N[C@H](CCN5CCOCC5)CSc5ccccc5)c(S(=O)(=O)C(F)(F)F)c4)cc3)CC2)C1 [Navitoclax] (partner 0.5 µM)
Procedure, shortened: as §1

Crizotinib + Alpelisib = compound: C[C@@H](Oc1cc(-c2cnn(C3CCNCC3)c2)cnc1N)c1c(Cl)ccc(F)c1Cl [Crizotinib] + Cc1nc(NC(=O)N2CCC[C@H]2C(N)=O)sc1-c1ccnc(C(C)(C)C(F)(F)F)c1 [Alpelisib] (partner 2 µM)
Procedure, shortened: as §1

## NCI-H1793
Olaparib + OSI-027; first compound 0.08 µM
  relative viability: 0.279
Olaparib + OSI-027; first compound 0.253 µM
  relative viability: 0.295
Olaparib + OSI-027; first compound 2.53 µM
  relative viability: 0.29
Olaparib + OSI-027; first compound 8 µM
  relative viability: 0.243
Carfilzomib + Tozasertib; first compound 0.003162 µM
  relative viability: 0.469
Carfilzomib + Tozasertib; first compound 0.01 µM
  relative viability: 0.327
Carfilzomib + Tozasertib; first compound 0.03162 µM
  relative viability: 0.292
Carfilzomib + Tozasertib; first compound 0.1 µM
  relative viability: 0.123
Olaparib + AZD7762; first compound 0.08 µM
  relative viability: 0.747
Olaparib + AZD7762; first compound 0.253 µM
  relative viability: 0.438
Olaparib + AZD7762; first compound 2.53 µM
  relative viability: 0.488
Olaparib + AZD7762; first compound 8 µM
  relative viability: 0.283
Carfilzomib + Navitoclax; first compound 0.003162 µM
  relative viability: 0.497
Carfilzomib + Navitoclax; first compound 0.01 µM
  relative viability: 0.52
Carfilzomib + Navitoclax; first compound 0.03162 µM
  relative viability: 0.462
Carfilzomib + Navitoclax; first compound 0.1 µM
  relative viability: 0.195
Crizotinib + Alpelisib; first compound 0.01 µM
  relative viability: 0.703
Crizotinib + Alpelisib; first compound 0.03162 µM
  relative viability: 0.789
Crizotinib + Alpelisib; first compound 0.1 µM
  relative viability: 0.729
Crizotinib + Alpelisib; first compound 1 µM
  relative viability: 0.872

From the supplement of paper PMC10307832
